Laboratory results taken from patent US20250368678A1, “19-NOR-C3,3-DISUBSTITUTED C21-AZACYCLO-S[…] AND METHOD FOR USING SAME” (SHANDONG LUYE PHARMACEUTICAL CO., LTD., priority 2022, published 2025).

Columns and labels:
[1] = target: T1, α1β2γ2 GABA receptors (α1β2γ2-CHO-TRex stable cell strain) (Homo sapiens, UniProt P14867+P47870); assay: Whole-cell patch clamp, intrasynaptic functional activity (positive allosteric regulation of GABA-induced current); type: cell-based; conditions: patch clamp -60 mV, GABA at EC10-20, α1β2γ2-CHO-TRex cells
T1 construct: expressed in transfected cells
T1 sequence (P14867 28-456): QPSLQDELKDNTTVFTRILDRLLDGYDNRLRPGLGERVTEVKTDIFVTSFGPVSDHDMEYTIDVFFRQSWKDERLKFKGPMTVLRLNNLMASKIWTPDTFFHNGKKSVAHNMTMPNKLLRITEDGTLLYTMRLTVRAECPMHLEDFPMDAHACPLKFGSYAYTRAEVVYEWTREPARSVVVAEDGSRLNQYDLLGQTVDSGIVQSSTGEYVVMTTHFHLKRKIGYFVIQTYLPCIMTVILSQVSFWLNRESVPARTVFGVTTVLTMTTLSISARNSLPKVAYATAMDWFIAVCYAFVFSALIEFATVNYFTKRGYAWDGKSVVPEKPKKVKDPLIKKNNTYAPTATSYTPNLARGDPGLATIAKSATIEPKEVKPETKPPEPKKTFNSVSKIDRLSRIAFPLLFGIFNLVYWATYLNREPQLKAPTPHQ
T1 sequence (P47870 25-512 limits assumed): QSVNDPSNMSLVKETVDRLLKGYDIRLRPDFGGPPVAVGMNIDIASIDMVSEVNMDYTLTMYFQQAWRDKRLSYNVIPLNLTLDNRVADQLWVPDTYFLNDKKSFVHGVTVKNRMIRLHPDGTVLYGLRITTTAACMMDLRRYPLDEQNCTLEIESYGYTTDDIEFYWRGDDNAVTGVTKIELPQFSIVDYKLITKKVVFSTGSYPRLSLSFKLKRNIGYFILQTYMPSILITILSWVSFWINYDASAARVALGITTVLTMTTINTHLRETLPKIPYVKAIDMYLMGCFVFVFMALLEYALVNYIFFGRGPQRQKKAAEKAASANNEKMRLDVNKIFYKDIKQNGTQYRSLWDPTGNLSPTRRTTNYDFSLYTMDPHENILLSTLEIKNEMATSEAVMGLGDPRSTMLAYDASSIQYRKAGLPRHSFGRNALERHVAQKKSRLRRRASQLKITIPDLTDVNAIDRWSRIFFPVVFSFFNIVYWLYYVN
T1 sequence (P18507 40-475 partner): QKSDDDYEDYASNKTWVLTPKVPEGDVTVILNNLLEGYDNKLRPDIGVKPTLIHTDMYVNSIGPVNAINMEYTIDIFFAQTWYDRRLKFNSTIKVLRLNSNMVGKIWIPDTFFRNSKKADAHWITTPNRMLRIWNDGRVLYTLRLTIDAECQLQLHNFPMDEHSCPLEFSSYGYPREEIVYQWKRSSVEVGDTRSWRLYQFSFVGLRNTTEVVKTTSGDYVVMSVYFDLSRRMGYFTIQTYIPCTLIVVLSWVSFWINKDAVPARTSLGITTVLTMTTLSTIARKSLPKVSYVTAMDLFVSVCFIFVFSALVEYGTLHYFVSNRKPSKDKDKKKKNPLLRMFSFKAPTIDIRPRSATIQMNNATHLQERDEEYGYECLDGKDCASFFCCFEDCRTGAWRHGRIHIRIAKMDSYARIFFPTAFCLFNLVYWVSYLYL
Protocol: (§1) The α4β3δ-HEK-FlpIn-TRex stable cell strain was cultured in DMEM+10% FBS complete culture medium, with the selective antibiotics being 10 μg/mL Blasticidin, 100 µg/mL Zeocin, 100 µg/mL Hygromycin, and 0.2 μg/mL Puromycin. The α1β2γ2-CHO-TRex stable cell strain was cultured in DMEM/F12+10% FBS complete culture medium, with the selective antibiotics being 10 μg/mL Blasticidin, 100 μg/mL Zeocin, 300 μg/mL Hygromycin, and […] Puromycin.
(§2) The day before the patch clamp experiment, cells were seeded onto 12 mm polylysine-coated coverslips and then cultured in 35 mm culture dishes, and tetracycline ([…]) was added to induce the expression of GABA receptors. The extracellular fluid had the following composition (in mM): 140 NaCl, 3 KCl, 1.5 MgCl2, 2 CaCl2, 10 HEPES, and 10 Glucose. After thorough mixing, NaOH was added to adjust the pH to 7.4, and sucrose was added to adjust the osmotic pressure to 300-320 mOsm. The fluid was stored at 4° C. The electrode internal solution had the following composition (in mM): 145 KCl, 1 MgCl2, 5 EGTA, 10 HEPES, and 5 MgATP. After thorough mixing, KOH was added to adjust the pH to 7.3, and sucrose was added to adjust the osmotic pressure to 290-300 mOsm. The solution was filtered through a […] before use.
(§3) Whole-cell patch clamp recording was mainly employed in this experiment. The membrane potential was clamped at −60 mV, and receptors were activated using GABA at an EC10-20 concentration ([…]). The test compounds were dissolved in 0.1% DMSO, and perfusion was performed for 30 s prior to GABA stimulation. Finally, the positive allosteric regulating effects of the test compounds on α1β2γ2 or α4β3δ were determined.
(§4) The experimental result for each concentration was expressed as a fold increase in the GABA-induced current caused by the compound. […] At least 5 concentrations are tested to obtain a complete EC50 curve and EC50 values. All experiments were repeated on no less than 3 cells, and data processing was completed using GraphPad prism software. The dose-response curves were fitted using the Hill equation, and the half-maximal activating concentration EC50 and Emax were finally obtained.

[2] = target: T2, α4β3δ GABA receptors (α4β3δ-HEK-FlpIn-TRex stable cell strain) (Homo sapiens, UniProt P28472+P48169); assay: Whole-cell patch clamp, extrasynaptic functional activity (positive allosteric regulation of GABA-induced current); type: cell-based; conditions: patch clamp -60 mV, GABA at EC10-20, α4β3δ-HEK-FlpIn-TRex cells
T2 construct: expressed in transfected cells
T2 sequence (P48169 36-554): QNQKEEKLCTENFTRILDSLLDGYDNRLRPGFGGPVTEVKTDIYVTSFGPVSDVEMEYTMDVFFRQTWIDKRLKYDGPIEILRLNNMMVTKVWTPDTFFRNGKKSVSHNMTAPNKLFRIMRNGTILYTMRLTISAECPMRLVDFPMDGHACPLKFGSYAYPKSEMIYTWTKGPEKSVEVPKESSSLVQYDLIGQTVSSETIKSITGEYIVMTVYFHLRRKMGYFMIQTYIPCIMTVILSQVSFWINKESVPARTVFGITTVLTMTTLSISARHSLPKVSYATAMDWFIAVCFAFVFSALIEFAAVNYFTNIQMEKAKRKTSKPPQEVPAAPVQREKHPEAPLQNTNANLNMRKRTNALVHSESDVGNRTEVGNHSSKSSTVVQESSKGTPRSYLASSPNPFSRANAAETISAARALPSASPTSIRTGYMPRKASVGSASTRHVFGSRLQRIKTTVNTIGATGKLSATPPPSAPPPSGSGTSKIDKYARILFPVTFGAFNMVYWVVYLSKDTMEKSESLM
T2 sequence (P28472 26-473): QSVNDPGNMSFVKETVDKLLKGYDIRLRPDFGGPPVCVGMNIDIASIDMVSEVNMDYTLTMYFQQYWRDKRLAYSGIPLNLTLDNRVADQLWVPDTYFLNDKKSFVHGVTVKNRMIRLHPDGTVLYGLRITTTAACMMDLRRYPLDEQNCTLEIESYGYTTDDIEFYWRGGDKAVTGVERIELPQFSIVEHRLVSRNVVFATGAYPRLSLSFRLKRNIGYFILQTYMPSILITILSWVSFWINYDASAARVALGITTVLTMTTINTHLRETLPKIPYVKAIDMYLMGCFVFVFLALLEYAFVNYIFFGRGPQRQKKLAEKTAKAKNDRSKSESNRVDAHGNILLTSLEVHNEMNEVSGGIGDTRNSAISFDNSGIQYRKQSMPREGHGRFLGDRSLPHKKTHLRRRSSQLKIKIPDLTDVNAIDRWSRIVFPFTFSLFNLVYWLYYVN
T2 sequence (O14764 25-452 partner): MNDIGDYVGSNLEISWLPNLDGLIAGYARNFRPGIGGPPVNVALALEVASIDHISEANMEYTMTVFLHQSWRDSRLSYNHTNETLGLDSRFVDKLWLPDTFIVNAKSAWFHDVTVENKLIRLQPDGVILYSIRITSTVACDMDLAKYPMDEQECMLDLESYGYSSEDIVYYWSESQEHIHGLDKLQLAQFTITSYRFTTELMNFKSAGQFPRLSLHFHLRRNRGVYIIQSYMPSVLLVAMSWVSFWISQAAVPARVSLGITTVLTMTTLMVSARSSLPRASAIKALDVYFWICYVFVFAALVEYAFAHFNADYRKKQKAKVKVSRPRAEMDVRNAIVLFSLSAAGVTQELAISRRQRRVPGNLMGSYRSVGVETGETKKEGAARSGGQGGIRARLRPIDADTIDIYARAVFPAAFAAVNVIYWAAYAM
Protocol: as §1, §2, §3, §4

[3] = In vitro liver microsomal stability assay, rat; type: in vitro ADME; conditions: for CLint scaled at 1 µM / half-life at 1 µM / microsomal CLint at 1 µM / T1/2: Rat liver microsomes; for Remaining amount % at 60 min: Rat liver microsomes 0.5 mg/mL, NADPH; for microsomal CLint at 1 µM: read-out: CLint(mic)
Protocol: (§5) 1) Preparation of working solutions of test samples: The test samples were diluted with acetonitrile to 100 M.
(§6) 2) Preparation of a working solution of liver microsomes: liver microsomes were diluted with 100 mM phosphate-buffered saline to 0.56 mg/mL.
(§7) 3) Preparation of a working solution of reduced nicotinamide adenine dinucleotide (NADPH): A proper amount of NADPH was weighed out and diluted with phosphate-buffered saline to 20 mM, and an equal volume of a 60 mM MgCl2 solution was added.
(§8) 4) Preparation of a stop solution: Tolbutamide was diluted with acetonitrile to 20 ng/mL, serving as a stop solution containing an internal standard.
(§9) 1) Incubation anti-adsorption EP tubes were prepared and labeled with species, test/control sample, time points (0, 5, 10, 20, 30, 60 min, Blank60, and NCF60), etc.
(§10) 2) 2 L of test or control sample working solution, diluted with acetonitrile to 100 M, and 178 L of liver microsome working solution were added to each tube. For the Blank60 tube, 2 L of acetonitrile was added instead of a test sample. The tubes were pre-incubated in a 37° C. water bath for about 10 min, with each sample tested in triplicate.
(§11) 3) After the pre-incubation was complete, 20 L of NADPH working solution was added to each tube except for the 0 min and NCF60 tubes to start reactions, and 20 L of phosphate-buffered saline (containing 30 mM MgCl2) was added to the NCF60 tube. In the incubation system, the final concentrations of the test and control samples were 1 M, the final concentration of liver microsomes was 0.5 mg/mL, the final concentration of NADPH was 1 mM, and the final concentration of MgCl2 was 3 mM.
(§12) 4) For the 0 min sample, 600 L of stop solution was added before adding the NADPH working solution. After each sample was incubated for its respective time, 600 L of stop solution was added to stop the reaction.
(§13) 5) After the reaction was stopped, each sample was vortexed for 30 s and then centrifuged at 13,500 rpm for 10 min. 100 L of the supernatant was transferred to an EP tube, and 100 L Milli-Q water was added. The mixture was well mixed by vortexing and analyzed by LC-MS/MS.
(§14) 6) Testosterone and dextromethorphan were used as positive control samples under the same conditions to assess the stability and reliability of the system.
(§15) Parameters of the test samples, including their half-lives, intrinsic clearance rates in liver microsomes, and hepatic intrinsic clearance rates, were calculated based on the percentage of test sample remaining.

[4] = In vitro liver microsomal stability assay, human; type: in vitro ADME; conditions: for CLint scaled at 1 µM / half-life at 1 µM / microsomal CLint at 1 µM / T1/2: Human liver microsomes; for Remaining amount % at 60 min: Human liver microsomes 0.5 mg/mL, NADPH; for microsomal CLint at 1 µM: read-out: CLint(mic)
Protocol: as §5, §6, §7, §8, §9, §10, §11, §12, §13, §14, §15

SMILES	EC50 [1] [nM]	Emax [1] [%]	EC50 [2] [nM]	Emax [2] [%]	CLint scaled at 1 µM [3] [mL/min/kg]	half-life at 1 µM [3] [min]	Remaining amount % at 60 min [3] [%]	microsomal CLint at 1 µM [3] [µL/min/mg]	CLint scaled at 1 µM [4] [mL/min/kg]	half-life at 1 µM [4] [min]	Remaining amount % at 60 min [4] [%]	microsomal CLint at 1 µM [4] [µL/min/mg]	T1/2 [3] [min]	T1/2 [4] [min]
C[C@@]1(O)CC[C@H]2[C@H](CC[C@@H]3[C@@H]2CC[C@]2(C)[C@@H](C(=O)Cn4cnn(-c5cccc(F)c5)c4=O)CC[C@@H]32)C1 [Compound 1]	56	566	10	440	43.6	57.3	44.5	24.2	3.97	330	89.0	4.2	–	–
C[C@@]1(O)CC[C@H]2[C@H](CC[C@@H]3[C@@H]2CC[C@]2(C)[C@@H](C(=O)Cn4cnn(-c5cccnc5)c4=O)CC[C@@H]32)C1 [Compound 2]	–	773	–	391	187	–	11.25	104	52	–	18.57	57	11.3	24.1
C[C@@]1(O)CC[C@H]2[C@H](CC[C@@H]3[C@@H]2CC[C@]2(C)[C@@H](C(=O)Cn4cnn(-c5ccccc5)c4=O)CC[C@@H]32)C1 [Compound 3]	90	430	29	490	94	26.5	51.77	52	11	118	70.25	12	–	–
C[C@@]1(O)CC[C@H]2[C@H](CC[C@@H]3[C@@H]2CC[C@]2(C)[C@@H](C(=O)Cn4cnn(-c5ccc(F)cc5)c4=O)CC[C@@H]32)C1 [Compound 4]	220	390	170	410	93	27	37.09	51	13	96.3	64.0	14	–	–
COc1cccc(-n2ncn(CC(=O)[C@H]3CC[C@H]4[C@@H]5CC[C@@H]6C[C@](C)(O)CC[C@@H]6[C@H]5CC[C@]34C)c2=O)c1 [Compound 5]	26	410	21	570	176	14.1	14.19	98	24	52.5	43.53	26	–	–
Cn1ncn(CC(=O)[C@H]2CC[C@H]3[C@@H]4CC[C@@H]5C[C@](C)(O)CC[C@@H]5[C@H]4CC[C@]23C)c1=O [Compound 6]	444	242	305	497	117	21.3	15.45	65	10	126	72.92	11	–	–
C[C@@]1(O)CC[C@H]2[C@H](CC[C@@H]3[C@@H]2CC[C@]2(C)[C@@H](C(=O)Cn4ncn(-c5ccc(F)cc5)c4=O)CC[C@@H]32)C1 [Compound 9]	12.4	294	148	428	239	–	4.19	133	38	–	24.73	42	10.3	32.8
C[C@@]1(O)CC[C@H]2[C@H](CC[C@@H]3[C@@H]2CC[C@]2(C)[C@@H](C(=O)Cn4ccn(-c5cccc(F)c5)c4=O)CC[C@@H]32)C1 [Compound 11]	241	594	139	552	276	9	9.24	153	63	19.8	28.02	70	–	–
C[C@@]1(O)CC[C@H]2[C@H](CC[C@@H]3[C@@H]2CC[C@]2(C)[C@@H](C(=O)Cn4c(=O)n(-c5ccccc5)c5ccccc54)CC[C@@H]32)C1 [Compound 13]	–	305	–	470	–	–	–	–	–	–	–	–	–	–
COc1ccc(-n2ncn(CC(=O)[C@H]3CC[C@H]4[C@@H]5CC[C@@H]6C[C@](C)(O)CC[C@@H]6[C@H]5CC[C@]34C)c2=O)cn1 [Compound 17]	–	389	–	474	161	–	6.6	90	17	–	57.7	19	15.5	72.9
C[C@@]1(O)CC[C@H]2[C@H](CC[C@@H]3[C@@H]2CC[C@]2(C)[C@@H](C(=O)Cn4cnn(-c5ccccc5F)c4=O)CC[C@@H]32)C1 [Compound 18]	171	710	107	541	278	9	9.7	154	30	41.7	38.3	33	–	–
C[C@@]1(O)CC[C@H]2[C@H](CC[C@@H]3[C@@H]2CC[C@]2(C)[C@@H](C(=O)Cn4cnn(-c5cc(F)ccn5)c4=O)CC[C@@H]32)C1 [Compound 35]	340	446	68	720	–	–	–	–	–	–	–	–	–	–
C[C@@]1(O)CC[C@H]2[C@H](CC[C@@H]3[C@@H]2CC[C@]2(C)[C@@H](C(=O)Cn4cnn(-c5ccnc(C(F)F)c5)c4=O)CC[C@@H]32)C1 [Compound 37]	–	600	–	432	–	–	–	–	–	–	–	–	–	–
Cc1cc(-n2ncn(CC(=O)[C@H]3CC[C@H]4[C@@H]5CC[C@@H]6C[C@](C)(O)CC[C@@H]6[C@H]5CC[C@]34C)c2=O)cc(C)n1 [Compound 40]	–	691	–	563	–	–	–	–	–	–	–	–	–	–
C[C@@]1(O)CC[C@@]2(C)[C@@H](CC[C@@H]3[C@@H]2CC[C@]2(C)[C@@H](C(=O)Cn4cnn(-c5ccnc(F)c5)c4=O)CC[C@@H]32)C1 [Compound 42]	280	736	143	507	–	–	–	–	–	–	–	–	–	–
